Results on four compounds are retold here after paper PMC3741170, “Reconstructing the Qo Site of Plasmodium falciparum bc 1 Complex in the Yeast Enzyme” (PLoS ONE, 2013).

Values joined by “and” are separate entries in the source; they are usually repeats but may differ in a detail not shown here. Equal entries are not always repeated.

The target in test [1] is T1, yeast bc 1 complex, cytochrome b mutant F278A (Saccharomyces cerevisiae, UniProt P00163, F278A).
T1 construct: Yeast mitochondria were prepared as in; expressed in transfected cells; host or cells: Saccharomyces cerevisiae, mitochondrial transformation; mitochondria
Kind of test: Quinol:cytochrome c reductase activity, inhibitor titration, mutant F278A. It counts as biochemical. Conditions: for IC50 increase (resistance) vs WT: F278A vs yeast WT; for IC50: F278A, ratio of IC50 on concentration of monomeric bc 1 complex. The method, then:
(§1) The mutants were generated by side-directed mutagenesis and mitochondrial transformation as described in [15]. They have identical nuclear and mitochondrial genomes with the exception of the mutations introduced in the cytochrome b gene.
(§2) Yeast mitochondria were prepared as in [16]. Bovine mitochondrial samples were kindly given by Prof. Peter Rich (UCL, UK). Quinol:cytochrome c reductase activity measurements were performed in 10mM potassium phosphate pH 7 and 20µM equine cytochrome c at room temperature. Mitochondria were diluted to 5–30 nM bc 1 complex. Concentrations of monomeric bc 1 complex were determined from the cytochrome b α-band in dithionite-reduced optical spectra, using ε = 28.5 mM^−1.cm^−1 at 562 nm minus 575 nm. Activity was initiated by the addition of 20µM decylubiquinol. Cytochrome c reduction was recorded at 550 nm versus 540 nm over a 3-min time-course in a Beckmann DU 640 spectrophotometer. Initial rates were measured. From these rates, turnover numbers (TN) were calculated as cytochrome c reduced per bc 1 complex per second.
(§3) Cytochrome c reduction activity was measured as described above in presence of increasing concentrations of inhibitors (six to ten different concentrations). Each measurement was repeated at least twice and averaged. […] The mid-point inhibition concentrations (IC50) were determined from the titrations. As the titrations were performed using mitochondrial samples containing different concentrations of bc 1 complex (5–30 nM), the results were presented as ratio of IC50 on the concentration of bc 1 complex.

Test [2] deals with T2, yeast bc 1 complex, cytochrome b mutant M295L (Saccharomyces cerevisiae, UniProt P00163, M295L).
T2 construct: Yeast mitochondria were prepared as in; expressed in transfected cells; host or cells: Saccharomyces cerevisiae, mitochondrial transformation; mitochondria
Kind of test: Quinol:cytochrome c reductase activity, inhibitor titration, mutant M295L. To be noted: for IC50: M295L, ratio of IC50 on concentration of monomeric bc 1 complex. It counts as biochemical. On the procedure:
as §1, §2, §3

Test [3] deals with T3, yeast bc 1 complex, Plasmodium-like Qo mutant PF1 (Saccharomyces cerevisiae, UniProt P00163, C133V/C134L/H141Y/V135P/Y136W).
T3 construct: Yeast mitochondria were prepared as in; expressed in transfected cells; host or cells: Saccharomyces cerevisiae, mitochondrial transformation; mitochondria
The test is described as follows: Quinol:cytochrome c reductase activity, inhibitor titration, Plasmodium-like mutant PF1. In kind it is biochemical. To be noted: ratio of IC50 on concentration of monomeric bc 1 complex. The method, then: as §1, §2, §3

In test [4] the target is T4, yeast bc 1 complex, human-like Qo mutant HSc (Saccharomyces cerevisiae, UniProt P00163, C133V/C134L/F278A/H141F/L275F/M295L/V135P/Y136W).
T4 construct: Yeast mitochondria were prepared as in; expressed in transfected cells; host or cells: Saccharomyces cerevisiae, mitochondrial transformation; mitochondria
Kind of test: Quinol:cytochrome c reductase activity, inhibitor titration, human-like mutant HSc. In kind it is biochemical. Conditions: for IC50: HSc, ratio of IC50 on concentration of monomeric bc 1 complex. The method, then: as §1, §2, §3

Test [5] addresses yeast bc 1 complex, human-like Qo mutant HSa. The test is described as follows: Quinol:cytochrome c reductase activity, inhibitor titration, human-like mutant HSa. In kind it is biochemical, Saccharomyces cerevisiae. Conditions: ratio of IC50 on concentration of monomeric bc 1 complex. The method, then:
as §1, §2
Cytochrome c reduction activity was measured as described above in presence of increasing concentrations of inhibitors (six to ten different concentrations). Each measurement was repeated at least twice and averaged. […] The mid-point inhibition concentrations (IC50) were determined from the titrations. […]

Test [6] addresses T5, yeast bc 1 complex, Plasmodium-like Qo mutant PF2 (Saccharomyces cerevisiae, UniProt P00163, C133V/C134L/H141Y/L275F/V135P/Y136W).
T5 construct: Yeast mitochondria were prepared as in; expressed in transfected cells; host or cells: Saccharomyces cerevisiae, mitochondrial transformation; mitochondria
Kind of test: Quinol:cytochrome c reductase activity, inhibitor titration, Plasmodium-like mutant PF2. In kind it is biochemical. To be noted: ratio of IC50 on concentration of monomeric bc 1 complex. The method, then:
as §1, §2, §3

Test [7] has as its target T6, yeast bc 1 complex, cytochrome b mutant L275F (Saccharomyces cerevisiae, UniProt P00163, L275F).
T6 construct: Yeast mitochondria were prepared as in; expressed in transfected cells; host or cells: Saccharomyces cerevisiae, mitochondrial transformation; mitochondria
Kind of test: Quinol:cytochrome c reductase activity, inhibitor titration, mutant L275F. It counts as biochemical. Conditions: for IC50: L275F, ratio of IC50 on concentration of monomeric bc 1 complex. The method, then: as §1, §2, §3

The test system of test [8] is yeast bc 1 complex, Plasmodium-like Qo mutant PF8. Kind of test: Quinol:cytochrome c reductase activity, inhibitor titration, Plasmodium-like mutant PF8. It counts as biochemical, Saccharomyces cerevisiae. Conditions: for IC50: ratio of IC50 on concentration of monomeric bc 1 complex. The method, then: as §1, §2, §3
Test [9] deals with T7, yeast bc 1 complex, human-like Qo mutant HSb (Saccharomyces cerevisiae, UniProt P00163, F278A/L275F/M295L).
T7 construct: Yeast mitochondria were prepared as in; expressed in transfected cells; host or cells: Saccharomyces cerevisiae, mitochondrial transformation; mitochondria
The test is described as follows: Quinol:cytochrome c reductase activity, inhibitor titration, human-like mutant HSb. To be noted: for IC50: HSb, ratio of IC50 on concentration of monomeric bc 1 complex. It counts as biochemical. The method, then:
as §1, §2, §3

For test [10], the system named is P. falciparum. Conditions: read-out: IC50, P. falciparum proliferation; cited from earlier work.
Test [11] has as its target T8, Yeast WT bc 1 complex (Saccharomyces cerevisiae, UniProt P00163).
T8 construct: Yeast mitochondria were prepared as in; endogenous in cells; host or cells: Saccharomyces cerevisiae mitochondria
The test is described as follows: Quinol:cytochrome c reductase activity, inhibitor titration, yeast WT mitochondria. It counts as biochemical. Conditions: ratio of IC50 on concentration of monomeric bc 1 complex. On the procedure:
as §2, §3

The target of test [12] is T9, yeast bc 1 complex, cytochrome b mutant Y279S (Saccharomyces cerevisiae, UniProt P00163, Y279S).
T9 construct: Yeast mitochondria were prepared as in; expressed in transfected cells; host or cells: Saccharomyces cerevisiae, mitochondrial transformation; mitochondria
Kind of test: Quinol:cytochrome c reductase activity, inhibitor titration, mutant Y279S. To be noted: ratio of IC50 on concentration of monomeric bc 1 complex. It counts as biochemical. The method, then: as §1, §2, §3

Test [13] relates to bovine bc 1 complex. Kind of test: Quinol:cytochrome c reductase activity, inhibitor titration, bovine mitochondria. It counts as biochemical. Conditions: bovine vs yeast WT. On the procedure:
as §2, §3

Test [14] addresses T10, bovine bc 1 complex (Bos taurus, UniProt P00157).
T10 construct: Peter Rich; from tissue
Described as above. In kind it is biochemical. To be noted: bovine enzyme; ratio of IC50 on concentration of monomeric bc 1 complex. On the procedure:
as §2, §3

For test [15], the system named is yeast bc 1 complex, Plasmodium-like Qo mutant PF12 (PF11 + Y279S). Kind of test: Quinol:cytochrome c reductase activity, inhibitor titration, Plasmodium-like mutant PF12. In kind it is biochemical, Saccharomyces cerevisiae. Conditions: ratio of IC50 on concentration of monomeric bc 1 complex. On the procedure:
as §1, §2, §3

The test system of test [16] is yeast bc 1 complex, Plasmodium-like Qo mutant PF11. Kind of test: Quinol:cytochrome c reductase activity, inhibitor titration, Plasmodium-like mutant PF11. It counts as biochemical, Saccharomyces cerevisiae. Conditions: for IC50: PF11, ratio of IC50 on concentration of monomeric bc 1 complex. On the procedure: as §1, §2, §3
Test [17] deals with P. falciparum bc 1 complex. Conditions: P. falciparum enzyme; not expressed as molar ratio; cited from earlier work.
Test [18] has as its target T6, yeast bc 1 complex, cytochrome b mutant L275F. Conditions: vs yeast WT; cited from earlier work.
Test [19] has as its system Rhodabacter capsulatus bc 1 complex. To be noted: bacterial complex, phenylalanine naturally at position 275; cited from earlier work.
In test [20] the test system is Rhodabacter capsulatus bc 1 complex, mutations I281M and R283K (yeast numbering). The arrangement: method as in PMID 15917236. To be noted: bacterial complex with I281M and R283K; cited from earlier work.
Test [21] relates to yeast bc 1 complex, PF11 with deletion Δ158–161. The test is described as follows: Quinol:cytochrome c reductase activity, PF11 with deletion Δ158–161. It counts as biochemical, Saccharomyces cerevisiae. Conditions: deletion introduced in PF11; not shown. On the procedure:
as §2, §3

Take `CO/C=C(/C(=O)OC)c1ccccc1Oc1cc(Oc2ccccc2C#N)ncn1` [azoxystrobin]: the “IC50 increase (resistance) vs WT” value in [1] was 6 fold. For the same compound, the IC50 came to 120 molar ratio in test [1]; 45 molar ratio in test [2]; 5 molar ratio in [3]; 140 molar ratio in test [4]; 130 molar ratio in test [5]; 16 molar ratio in test [6]. In addition, the IC50 in test [7] was 30 molar ratio; in [8] it was 220 molar ratio; in test [9], 160 molar ratio; in test [10] it was 15 nM; in test [11], 20 molar ratio; in [12], 60 molar ratio. Moreover, the IC50 in test [14] is on record as 180 molar ratio; in [15], 30 molar ratio; in test [16], 40 molar ratio. In addition, the “increase in resistance caused by modifications of residues 283 to 299” value in test [8] stood at 10 fold. For the same compound, the “resistance conferred by triple mutation” value in [9] (HSb vs yeast WT) was found to be 8 fold. For the same compound, the “resistance of the mammalian enzyme compared to yeast enzyme” value in test [13] came to 9 fold. In addition, in [16] (PF11 vs PF8), the “lowering of resistance by changes in position 133 to 141” value turned out to be 5 fold.
As to `CCOC(=O)c1c[nH]c2cc(Oc3ccc(OC(F)(F)F)cc3)ccc2c1=O` [RCQ06], the IC50 in test [3] was over 500 molar ratio; in test [6] it was 10 molar ratio; in test [7], 10 molar ratio; in [17] it was ~1.3 nM and 1.3 nM; in [8], 40 molar ratio; in test [11], over 500 molar ratio. Also, the IC50 was over 500 molar ratio in [12], 40 molar ratio in [14], over 500 molar ratio in test [15] and 25 molar ratio in test [16]. The “increase in sensitivity vs WT” value in test [7] (L275F vs yeast WT) is on record as “over 50 fold”.
As to `O=C1C(O)=C([C@H]2CC[C@H](c3ccc(Cl)cc3)CC2)C(=O)c2ccccc21` [atovaquone], in test [18], the “decrease in sensitivity on introducing L275F in yeast bc 1 complex” value is reported as “over 20 fold”. Besides, the figures for the “IC50 increase (resistance) vs WT” value in [1], in [2] (M295L vs yeast WT) and in [7] (L275F vs yeast WT) were 9 fold, 2.5 fold and 35 fold, respectively. Besides, the IC50 is given as 35 molar ratio in test [1]; 10 molar ratio in test [2]; 2 molar ratio in test [3]; 60 molar ratio in test [4]; 200 molar ratio in [5]; 10 molar ratio in test [6]. Also, the IC50 in [7] is 150 molar ratio; in test [19], about 30 nM; in test [20], 10 nM; in [17] it was ~3 nM and 3 nM; in test [8] it was 16 molar ratio; in test [9], 170 molar ratio. Besides, the IC50 was 4 molar ratio in [11]; over 850 molar ratio in [12]; 75 molar ratio in test [14]; over 850 molar ratio in test [15]; 3 molar ratio in test [16]. In addition, the “resistance vs WT enzyme” value in test [4] (HSc vs yeast WT) was found to be 15 fold. The “effect of deletion Δ158–161 on sensitivity” value in test [21] is “little effect”.
Take antimycin: the “sensitivity compared with that of the WT control” value in test [4] (HSc vs WT, data not shown) is “No or very little difference”; in test [16] (PF11 vs WT, data not shown), “No or very little difference”.
